The results in this text go back to patent US11072585B2 (PharmAkea, Inc., priority 2015, dated 2021).

Where a name gives a salt, the structure may show the parent alone.

The target in the experiment is human LOXL2 (Homo sapiens (Human), UniProt Q9Y4K0). As to the kind of experiment: Human LOXL2 amine oxidase activity assay (Amplex Red). It is filed as biochemical. The settings on record: concentrated conditioned media from CHO cells stably expressing human LOXL2; 2 h at 37° C. with compound; DAP substrate. As for the experimental part: Example B-1: Human LOXL2 Amine Oxidase Activity Assay
LOXL2 amine oxidase activity is evaluated by measuring Amplex Red fluorescence using 10-20× concentrated conditioned media from CHO cells stably expressing human LOXL2. To assay for amine oxidase activity, 10 μL of the concentrated conditioned media is incubated with 2 μL of test compound in DMSO and 73 μL Assay Buffer (50 mM Borate Buffer, pH8) for 2 h at 37° C. After the 2 h incubation, 5 ul of 10 mM 1,5-Diaminopentane (DAP) diluted in Assay Buffer and 10 μl of Amplex Red Mix (8.5 μl Assay Buffer+0.5 μl of 10 mM Amplex Red+1 μl of 500 U/ml Horseradish Peroxidase) are added and the plate mixed and immediately placed on the FlexStaion for fluorescence measurements. Fluorescence is read in kinetic mode every 2 min for 1 hour at excitation=544 and emission=590. The amine oxidase activity is calculated from the slope of the linear portion of the curve.

human LOXL2, sequence (Q9Y4K0 26-774): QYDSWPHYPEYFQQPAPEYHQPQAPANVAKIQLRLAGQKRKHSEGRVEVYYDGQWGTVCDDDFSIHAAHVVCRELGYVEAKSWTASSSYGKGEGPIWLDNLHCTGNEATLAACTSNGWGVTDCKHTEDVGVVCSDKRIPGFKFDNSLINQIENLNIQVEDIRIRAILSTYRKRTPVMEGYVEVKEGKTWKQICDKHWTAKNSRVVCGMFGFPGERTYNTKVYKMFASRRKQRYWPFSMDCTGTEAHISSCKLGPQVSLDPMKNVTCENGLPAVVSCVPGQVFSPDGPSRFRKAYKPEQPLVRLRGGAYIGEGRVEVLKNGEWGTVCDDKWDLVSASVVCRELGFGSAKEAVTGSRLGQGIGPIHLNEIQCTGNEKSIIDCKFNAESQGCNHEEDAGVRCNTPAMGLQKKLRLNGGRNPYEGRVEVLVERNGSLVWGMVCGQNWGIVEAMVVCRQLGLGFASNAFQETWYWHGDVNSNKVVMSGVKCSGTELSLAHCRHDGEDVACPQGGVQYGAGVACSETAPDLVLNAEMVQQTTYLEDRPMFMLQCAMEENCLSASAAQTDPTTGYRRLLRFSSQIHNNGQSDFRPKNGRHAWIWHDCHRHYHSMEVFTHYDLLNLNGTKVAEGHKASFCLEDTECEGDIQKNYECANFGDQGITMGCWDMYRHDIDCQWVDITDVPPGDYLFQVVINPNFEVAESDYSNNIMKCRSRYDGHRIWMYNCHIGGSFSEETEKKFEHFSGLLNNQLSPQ

For the molecule `NCc1cc(O[C@H]2CCCN(C(=O)Cc3ccc(Cl)c(Cl)c3)C2)nc(C(F)(F)F)c1` [Compound 1-47, (S)-1-(3-((4-(Aminomethyl)-6-(trifluoromethyl)pyridin-2-yl)oxy)piperidin-1-yl)-2-(3,4-dichlorophenyl)ethanone trifluoroacetate], the concentration for half-maximal inhibition (IC50) (as a rule, the concentration at which inhibition is half-maximal) was less than 0.3 µM.

For `NCc1cc(NC(=O)c2cccc(C(=O)O)c2)nc(C(F)(F)F)c1` [Compound 1-239, 3-((4-(Aminomethyl)-6-(trifluoromethyl)pyridin-2-yl)carbamoyl)benzoic acid trifluoroacetate], the IC50 is less than 0.3 µM.

For the molecule `NCc1cc(-c2cccnc2)nc(C(F)(F)F)c1` [Compound 1-1, (6-(Trifluoromethyl)-[2,3′-bipyridin]-4-yl)methanamine trifluoroacetate], the IC50 is less than 0.3 µM.

Regarding `COc1cc(Oc2cc(CN)cc(C(F)(F)F)n2)cc(C(=O)N2C[C@@H](O)[C@H](F)C2)c1` (racemic) [Compound 1-232, Racemic-trans-(3-((4-(aminomethyl)-6-(trifluoromethyl)pyridin-2-yl)oxy)-5-methoxyphenyl)(3-fluoro-4-hydroxypyrrolidin-1-yl)methanone hydrochloride], the IC50 was in the range of 0.3 to 1 µM.

With `NCc1cc(Oc2cccc3c2CCC(=O)N3CC(=O)O)nc(C(F)(F)F)c1` [Compound 1-236, 2-(5-((4-(Aminomethyl)-6-(trifluoromethyl)pyridin-2-yl)oxy)-2-oxo-3,4-dihydroquinolin-1(2H)-yl)acetic acid hydrochloride], the IC50 was greater than 1 µM.

In the case of `NCc1cc(Oc2cccc(C(=O)NCCS(N)(=O)=O)c2)nc(C(F)(F)F)c1` [Compound 1-34, 3-((4-(Aminomethyl)-6-(trifluoromethyl)pyridin-2-yl)oxy)-N-(2-sulfamoylethyl)benzamide hydrochloride], the concentration for half-maximal inhibition (IC50) is less than 0.3 µM.

As for `NCc1cc(Oc2cccc(C(=O)N3CC[C@H](F)C3)c2)nc(C(F)(F)F)c1` [Compound 1-213, (S)-(3-((4-(Aminomethyl)-6-(trifluoromethyl)pyridin-2-yl)oxy)phenyl)(3-fluoropyrrolidin-1-yl)methanone hydrochloride], the IC50 is less than 0.3 µM.

For the molecule `NCc1cc(Oc2cccc(C(=O)N3C[C@@H](F)[C@@H](O)C3)c2)nc(C(F)(F)F)c1` (racemic) [Compound 1-211, Racemic-cis-(3-((4-(aminomethyl)-6-(trifluoromethyl)pyridin-2-yl)oxy)phenyl)(3-fluoro-4-hydroxypyrrolidin-1-yl)methanone hydrochloride], the 50% inhibitory concentration (IC50) is less than 0.3 µM.

In the case of `CN(CCO)C(=O)c1cccc(Oc2cc(CN)cc(C(F)(F)F)n2)c1` [Compound 1-202, 3-((4-(Aminomethyl)-6-(trifluoromethyl)pyridin-2-yl)oxy)-N-(2-hydroxyethyl)-N-methylbenzamide hydrochloride], the IC50 was less than 0.3 µM.

Consider `NCc1cc(Oc2ccnc(C(=O)Nc3ccccc3)c2)nc(C(F)(F)F)c1` [Compound 1-252, 4-((4-(Aminomethyl)-6-(trifluoromethyl)pyridin-2-yl)oxy)-N-phenylpicolinamide hydrochloride], for which the IC50 is less than 0.3 µM.

As to `NCc1cc(Oc2cccc(-c3ccccc3)c2)nc(C(F)(F)F)c1` [Compound 1-2, (2-([1,1′-Biphenyl]-3-yloxy)-6-(trifluoromethyl)pyridin-4-yl)methanamine trifluoroacetate], the 50% inhibitory concentration (IC50) is less than 0.3 µM.

For the molecule `CN(C)CCNC(=O)c1cccc(Oc2cc(CN)cc(C(F)(F)F)n2)c1` [Compound 1-35, 3-((4-(Aminomethyl)-6-(trifluoromethyl)pyridin-2-yl)oxy)-N-(2-(dimethylamino)ethyl)benzamide dihydrochloride], the half-maximal inhibitory concentration (IC50) is less than 0.3 µM.

On to `C#C[C@@H](CC(=O)O)NC(=O)c1cccc(Oc2cc(CN)cc(C(F)(F)F)n2)c1` [Compound 1-223, (R)-3-(3-((4-(aminomethyl)-6-(trifluoromethyl)pyridin-2-yl)oxy)benzamido)pent-4-ynoic acid hydrochloride], for which the IC50 was 0.3 to 1 µM.

Consider `NCc1cc(Oc2cccc(C(=O)N3CCc4ccccc4C3)c2)nc(C(F)(F)F)c1` [Compound 1-11, (3-((4-(Aminomethyl)-6-(trifluoromethyl)pyridin-2-yl)oxy)phenyl)(3,4-dihydroisoquinolin-2(1H)-yl)methanone hydrochloride], for which the half-maximal inhibitory concentration (IC50) is less than 0.3 µM.

In the case of `NCc1cc(O[C@H]2CCCN(C(=O)Cc3ccccc3)C2)nc(C(F)(F)F)c1` [Compound 1-46, (S)-1-(3-((4-(Aminomethyl)-6-(trifluoromethyl)pyridin-2-yl)oxy)piperidin-1-yl)-2-phenylethanone trifluoroacetate], the half-inhibitory concentration (IC50) is less than 0.3 µM.

On to `CS(=O)(=O)OC1CN(C(=O)c2cccc(Oc3cc(CN)cc(C(F)(F)F)n3)c2)CC1F` (stereo not shown) [Compound 1-214, hydrochloride], for which the IC50 is less than 0.3 µM.

As for `NCc1cc(O[C@H]2CCCN(C(=O)c3cccnc3)C2)nc(C(F)(F)F)c1` [Compound 1-49, (S)-(3-((4-(Aminomethyl)-6-(trifluoromethyl)pyridin-2-yl)oxy)piperidin-1-yl)(pyridin-3-yl)methanone trifluoroacetate], the IC50 is less than 0.3 µM.

On to `NCc1cc(Oc2cccc(-c3cn[nH]c3)c2)nc(C(F)(F)F)c1` [Compound 1-6, (2-(3-(1H-Pyrazol-4-yl)phenoxy)-6-(trifluoromethyl)pyridin-4-yl)methanamine trifluoroacetate], for which the half-maximal inhibitory concentration (IC50) is less than 0.3 µM.

`NCc1cc(Oc2cccc(C(=O)N[C@@H]3CCC[C@@H]3O)c2)nc(C(F)(F)F)c1` [Compound 1-209, 3-((4-(Aminomethyl)-6-(trifluoromethyl)pyridin-2-yl)oxy)-N-((1R,2S)-2-hydroxycyclopentyl)benzamide hydrochloride]: the IC50 was less than 0.3 µM.

With `CN(C)[C@@H]1CN(C(=O)c2cccc(Oc3cc(CN)cc(C(F)(F)F)n3)c2)C[C@H]1O` (racemic) [Compound 1-23, Racemic-trans-(3-((4-(aminomethyl)-6-(trifluoromethyl)pyridin-2-yl)oxy)phenyl)(-3-(dimethylamino)-4-hydroxypyrrolidin-1-yl)methanone hydrochloride], the half-inhibitory concentration (IC50) was less than 0.3 µM.

Consider `NCc1cc(NC(=O)c2cccc(C(=O)N3CC[C@H](O)C3)c2)nc(C(F)(F)F)c1` [Compound 1-241, (S)—N-(4-(Aminomethyl)-6-(trifluoromethyl)pyridin-2-yl)-3-(3-hydroxypyrrolidine-1-carbonyl)benzamide trifluoroacetate], for which the half-inhibitory concentration (IC50) was less than 0.3 µM.

Turning to `NCc1cc(Oc2cccc(C(=O)NCCn3cncn3)c2)nc(C(F)(F)F)c1` [Compound 1-14, N-(2-(1H-1,2,4-Triazol-1-yl)ethyl)-3-((4-(aminomethyl)-6-(trifluoromethyl)pyridin-2-yl)oxy)benzamide hydrochloride], the concentration for half-maximal inhibition (IC50) was less than 0.3 µM.

As to `NCc1cc(Oc2cc(C(=O)N3C[C@@H](O)[C@H](F)C3)ccc2O)nc(C(F)(F)F)c1` (racemic) [Compound 1-229, Racemic-trans-(3-((4-(aminomethyl)-6-(trifluoromethyl)pyridin-2-yl)oxy)-4-hydroxyphenyl)(3-fluoro-4-hydroxypyrrolidin-1-yl)methanone hydrochloride], the concentration for half-maximal inhibition (IC50) lay within 0.3 to 1 µM.

`NCc1cc(Oc2cccc(C(=O)NCc3nn[nH]n3)c2)nc(C(F)(F)F)c1` [Compound 1-13, N-((2H-Tetrazol-5-yl)methyl)-3-((4-(aminomethyl)-6-(trifluoromethyl)pyridin-2-yl)oxy)benzamide hydrochloride]: the IC50 is less than 0.3 µM.

With `CS(=O)(=O)CCNC(=O)c1cncc(Oc2cc(CN)cc(C(F)(F)F)n2)c1` [Compound 1-53, 5-((4-(Aminomethyl)-6-(trifluoromethyl)pyridin-2-yl)oxy)-N-(2-(methylsulfonyl)ethyl)nicotinamide hydrochloride], the concentration for half-maximal inhibition (IC50) was less than 0.3 µM.

With `NCc1cc(Oc2cccc(C(=O)NCCN3CCOC3=O)c2)nc(C(F)(F)F)c1` [Compound 1-28, 3-((4-(Aminomethyl)-6-(trifluoromethyl)pyridin-2-yl)oxy)-N-(2-(2-oxooxazolidin-3-yl)ethyl)benzamide], the IC50 is less than 0.3 µM.

As to `NCc1cc(Oc2cccc3c2CCC(=O)N3CCO)nc(C(F)(F)F)c1` [Compound 1-60, 5-((4-(Aminomethyl)-6-(trifluoromethyl)pyridin-2-yl)oxy)-1-(2-hydroxyethyl)-3,4-dihydroquinolin-2(1H)-one hydrochloride], the IC50 lay within 0.3 to 1 µM.

Take `NCc1cc(Oc2cccc(C(=O)N[C@H]3COCC[C@@H]3O)c2)nc(C(F)(F)F)c1` [Compound 1-208, 3-((4-(Aminomethyl)-6-(trifluoromethyl)pyridin-2-yl)oxy)-N-((3S,4S)-4-hydroxytetrahydro-2H-pyran-3-yl)benzamide hydrochloride]: the concentration for half-maximal inhibition (IC50) was less than 0.3 µM.

Regarding `NCc1cc(Oc2cccc(COc3ccccc3)c2)nc(C(F)(F)F)c1` [Compound 1-4, (2-(3-(Phenoxymethyl)phenoxy)-6-(trifluoromethyl)pyridin-4-yl)methanamine trifluoroacetate], the half-inhibitory concentration (IC50) was less than 0.3 µM.

With `C#CCNC(=O)c1cccc(Oc2cc(CN)cc(C(F)(F)F)n2)c1` [Compound 1-248, 3-((4-(Aminomethyl)-6-(trifluoromethyl)pyridin-2-yl)oxy)-N-(prop-2-yn-1-yl)benzamide hydrochloride], the IC50 is less than 0.3 µM.

On to `NCc1cc(Oc2cccc(C(=O)NC[C@@H](O)CO)c2)nc(C(F)(F)F)c1` [Compound 1-33, (R)-3-((4-(Aminomethyl)-6-(trifluoromethyl)pyridin-2-yl)oxy)-N-(2,3-dihydroxypropyl)benzamide hydrochloride], for which the concentration for half-maximal inhibition (IC50) was less than 0.3 µM.
